Paper PMC11078216, “Discovery of potent and selective activity-based probes (ABPs) for the deubiquitinating enzyme USP30” (RSC Chemical Biology, 2024)

Target: T1, UCHL1 (Homo sapiens, UniProt P09936)
T1 sequence (P09936 1-223): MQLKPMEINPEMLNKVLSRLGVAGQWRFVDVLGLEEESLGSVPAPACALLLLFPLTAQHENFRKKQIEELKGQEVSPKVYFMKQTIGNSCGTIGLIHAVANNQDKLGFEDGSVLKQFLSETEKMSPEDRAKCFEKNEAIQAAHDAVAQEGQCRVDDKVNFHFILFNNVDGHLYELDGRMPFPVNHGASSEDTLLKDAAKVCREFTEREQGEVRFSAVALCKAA
Experiment: In-cell target engagement using HA-Ub-VME competition, immunoblot
Type: cell-based
Parameters: endogenous in cells; host or cells: HEK293T
Conditions: HEK293T cells, 1 hour, in-lysate HA-Ub-VME competition, western blot
Experimental: We next determined cellular engagement of endogenous USP30 with IMP-2587 or IMP-2586. […] In-cell concentration-dependent competition by IMP-2587 and IMP-2586 for USP30 were confirmed below 100 nM probe (Fig. 2b and c), whilst engagement of an exemplar unrelated DUB, UCHL1, occurred only at a much higher concentration (30 000 nM). We hypothesise that incomplete modification of USP30 by HA-Ub-VME is likely due to limited retention of USP30 activity in cell lysates, which have likely had the USP30 transmembrane domain compromised, highlighting the potential utility of a small molecule USP30 ABP applicable directly in intact cells. Direct USP30 target engagement by IMP-2587 and IMP-2586 was confirmed in HEK293T cells following 1 h probe treatment followed by cell lysis and CuAAC bio-orthogonal ligation to capture reagent azido-TAMRA-biotin (AzTB) for IMP-2587 or alkyne-TAMRA-biotin for IMP-2586 (Fig. 3a).[27] […] This unspecific background labelling is presumably due to the previously reported higher off-target CuAAC reactivity of an alkyne-bearing capture reagent, applied here due to incorporation of an azide tag in IMP-2586.[28] Moreover, the labelling of USP30 was further confirmed by biotin pulldown and immunoblotting.
2) USP30 in-cell engagement analysis […]
Protein concentration was determined by DC Protein assay (Bio-RAD). […]

| SMILES | concentration at which UCHL1 engagement occurred |
| --- | --- |
| N#CN1CC[C@@H](NC(=O)c2cc(-c3ccccc3Oc3ccc(N=[N+]=[N-])cc3)n[nH]2)C1 [IMP-2586] | 30 000 nM |
| C#Cc1cccc(-c2cc(NC(=O)CC3CCN(C#N)C3)on2)c1 (centres unmarked) [IMP-2587] | 30 000 nM |
